Measurements: patent US6392083B1, “Process for producing salts of cyanobenzylamines” (Showa Denko K.K., priority 1999, dated 2002)

Tests used:
[1] = Bulk density measured with Powder-tester Type PT-N; format: physicochemical; conditions: dried salt powder; Powder-tester Type PT-N (Hosokawa Micron); hydrochloride
Procedure: The bulk density was measured with a Powder-tester Type PT-N (product of Hosokawa Micron).

[2] = From the text: These two compounds are difficult to separate through distillation due to the small difference between their respective boiling points.

| Structure (SMILES) | bulk density [1] | water solubility [2] |
| --- | --- | --- |
| Cl.N#Cc1ccc(CN)cc1 [Comparative Example, p-Cyanobenzylamine hydrochloride, reference compound] | 0.2 g/mL | – |
| Cl.N#Cc1ccc(CN)cc1 [Example 1, p-cyanobenzylamine hydrochloride] | 0.3 g/mL | – |
| Cl.N#Cc1ccc(CN)cc1 [Example 7, p-cyanobenzylamine hydrochloride] | 0.5 g/mL | – |
| Cl.N#Cc1ccc(CN)cc1 [p-cyanobenzylamine hydrochloride] | – | much lower than that of p-xylylenediamine hydrochloride |
